Assay results reported in the NIST ThermoML archive (doi:10.1021/je060271a).

Details: 343.15 K, Liquid, Vibrating tube method

CCCCC(=O)OCC(COC(=O)CCCC)(COC(=O)CCCC)COC(=O)CCCC [pentaerythritol tetrapentanoate]
Details | mass density [kg/m3]
12882 kPa | 988.2
12909 kPa | 988.3
12937 kPa | 988.2
12964 kPa | 988.3
12996 kPa | 988.3
13022 kPa | 988.5
13049 kPa | 988.3
13082 kPa | 988.4
13109 kPa | 988.3
13137 kPa | 988.5
13164 kPa | 988.4
13198 kPa | 988.5
13226 kPa | 988.4
13254 kPa | 988.4
13287 kPa | 988.5
13318 kPa | 988.6
13346 kPa | 988.6
13374 kPa | 988.6
13408 kPa | 988.7
13437 kPa | 988.6
13466 kPa | 988.7
13495 kPa | 988.7
13530 kPa | 988.7
13559 kPa | 988.7
13594 kPa | 988.8
13624 kPa | 988.8
13653 kPa | 988.9
13683 kPa | 988.8
13719 kPa | 988.9
13750 kPa | 989
13780 kPa | 989
13816 kPa | 989
13847 kPa | 989
13877 kPa | 989.1
13914 kPa | 988.9
13945 kPa | 989.2
13976 kPa | 989
14014 kPa | 989.2
14045 kPa | 989.2
14077 kPa | 989.2
14110 kPa | 989.1
14149 kPa | 989.1
14181 kPa | 989.1
14213 kPa | 989.3
14252 kPa | 989.2
14284 kPa | 989.4
14318 kPa | 989.2
14350 kPa | 989.3
14390 kPa | 989.6
14423 kPa | 989.4
14457 kPa | 989.4
14497 kPa | 989.5
14531 kPa | 989.5
14566 kPa | 989.5
14607 kPa | 989.5
14641 kPa | 989.7
14676 kPa | 989.6
14717 kPa | 989.7
14752 kPa | 989.7
14787 kPa | 989.7
14829 kPa | 989.7
14864 kPa | 989.6
14900 kPa | 989.8
14943 kPa | 989.7
14979 kPa | 989.8
15016 kPa | 989.9
15053 kPa | 989.8
15097 kPa | 989.9
15134 kPa | 989.8
15171 kPa | 989.9
15214 kPa | 989.9
15252 kPa | 990.1
15289 kPa | 989.9
15334 kPa | 990
15372 kPa | 990
15411 kPa | 990.2
15458 kPa | 990.1
15497 kPa | 990.1
15537 kPa | 990.3
15578 kPa | 990.2
15628 kPa | 990.3
15668 kPa | 990.3
15704 kPa | 990.5
15742 kPa | 990.3
15774 kPa | 990.4
15806 kPa | 990.4
15845 kPa | 990.4
15877 kPa | 990.6
15910 kPa | 990.4
15950 kPa | 990.4
15982 kPa | 990.5
16016 kPa | 990.5
16052 kPa | 990.6
16091 kPa | 990.6
16125 kPa | 990.7
16159 kPa | 990.6
16199 kPa | 990.8
16233 kPa | 990.7
16268 kPa | 990.8
16302 kPa | 990.8
16344 kPa | 990.7
16378 kPa | 990.9
16413 kPa | 990.8
16456 kPa | 990.9
16493 kPa | 991
16530 kPa | 991
16566 kPa | 991
16602 kPa | 991
16644 kPa | 990.9
16680 kPa | 991
16724 kPa | 991.1
16760 kPa | 991.1
16796 kPa | 991.1
16841 kPa | 991.2
16878 kPa | 991.1
16915 kPa | 991.1
16959 kPa | 991.1
16997 kPa | 991.2
17035 kPa | 991.2
17081 kPa | 991.3
17119 kPa | 991.3
17158 kPa | 991.3
17204 kPa | 991.4
17243 kPa | 991.4
17282 kPa | 991.4
17330 kPa | 991.6
17371 kPa | 991.5
17412 kPa | 991.6
17462 kPa | 991.6
17500 kPa | 991.5
17533 kPa | 991.6
17569 kPa | 991.6
17600 kPa | 991.6
17630 kPa | 991.5
17666 kPa | 991.6
17697 kPa | 991.7
17728 kPa | 991.8
17765 kPa | 991.9
17796 kPa | 991.9
17827 kPa | 991.7
17864 kPa | 991.9
17896 kPa | 991.9
17928 kPa | 991.9
17966 kPa | 991.9
17998 kPa | 991.8
18030 kPa | 992
18068 kPa | 992
18100 kPa | 992.1
18132 kPa | 992
18171 kPa | 991.9
18204 kPa | 992.2
18236 kPa | 992
18276 kPa | 992.1
18309 kPa | 992.1
18342 kPa | 992.1
18382 kPa | 992.2
18416 kPa | 992.2
18450 kPa | 992.1
18490 kPa | 992.3
18524 kPa | 992.4
18558 kPa | 992.3
18600 kPa | 992.4
18634 kPa | 992.4
18668 kPa | 992.5
18709 kPa | 992.5
18744 kPa | 992.5
18780 kPa | 992.5
18821 kPa | 992.4
18857 kPa | 992.7
18892 kPa | 992.5
18935 kPa | 992.7
18971 kPa | 992.6
19007 kPa | 992.6
19052 kPa | 992.7
19088 kPa | 992.6
19126 kPa | 992.7
19172 kPa | 992.8
19211 kPa | 992.9
19248 kPa | 992.8
19284 kPa | 992.9
19312 kPa | 992.8
19340 kPa | 992.9
19368 kPa | 992.9
19401 kPa | 992.9
19429 kPa | 992.9
19458 kPa | 993
19491 kPa | 992.9
19520 kPa | 993.1
19549 kPa | 993.1
19579 kPa | 993
19613 kPa | 993
19638 kPa | 993.1
19666 kPa | 993.2
19689 kPa | 993.1
19713 kPa | 993
19737 kPa | 993.1
19761 kPa | 993.2
19789 kPa | 993.2
19813 kPa | 993.2
19836 kPa | 993.2
19864 kPa | 993.2
19888 kPa | 993.3
19912 kPa | 993.3
19941 kPa | 993.3
19964 kPa | 993.3
19988 kPa | 993.4
20017 kPa | 993.3
20042 kPa | 993.4
20066 kPa | 993.3
20095 kPa | 993.4
20119 kPa | 993.6
20143 kPa | 993.5
20173 kPa | 993.5
20197 kPa | 993.5
20222 kPa | 993.5
20251 kPa | 993.5
20276 kPa | 993.5
20301 kPa | 993.6
20330 kPa | 993.7
20355 kPa | 993.4
20381 kPa | 993.7
20410 kPa | 993.7
20436 kPa | 993.7
20461 kPa | 993.5
20487 kPa | 993.7
20517 kPa | 993.6
20542 kPa | 993.6
20568 kPa | 993.7
20598 kPa | 993.7
20629 kPa | 993.8
20660 kPa | 993.8
20687 kPa | 993.8
20713 kPa | 993.9
20740 kPa | 993.9
20770 kPa | 993.8
20797 kPa | 993.9
20823 kPa | 993.8
20854 kPa | 993.9
20880 kPa | 994
20907 kPa | 993.9
20939 kPa | 994
20965 kPa | 994
20992 kPa | 994.1
21020 kPa | 993.9
21052 kPa | 994.1
21079 kPa | 994.1
21106 kPa | 994.1
21254 kPa | 994.2
21281 kPa | 994.3
21309 kPa | 994.2
21342 kPa | 994.3
21370 kPa | 994.3
22531 kPa | 995.1
22626 kPa | 995.2
22664 kPa | 995
22696 kPa | 995.3
23251 kPa | 995.5
23324 kPa | 995.7
23466 kPa | 995.7
23985 kPa | 996.2
24021 kPa | 996
24064 kPa | 996
24136 kPa | 996.2
24180 kPa | 996.1
24216 kPa | 996.2
24253 kPa | 996.2
24297 kPa | 996.3
24334 kPa | 996.4
24371 kPa | 996.3
24415 kPa | 996.2
24452 kPa | 996.3
24490 kPa | 996.5
24529 kPa | 996.4
24574 kPa | 996.5
24612 kPa | 996.4
24650 kPa | 996.5
24696 kPa | 996.4
24734 kPa | 996.4
24772 kPa | 996.5
24856 kPa | 996.5
24895 kPa | 996.7
24934 kPa | 996.7
24981 kPa | 996.8
25274 kPa | 996.9
25314 kPa | 997
25354 kPa | 996.9
25839 kPa | 997.2
25895 kPa | 997.4
26210 kPa | 997.4
26261 kPa | 997.5
26310 kPa | 997.5
26350 kPa | 997.5
26385 kPa | 997.6
26426 kPa | 997.6
26460 kPa | 997.6
26502 kPa | 997.8
26536 kPa | 997.7
26571 kPa | 997.8
26607 kPa | 997.7
26649 kPa | 997.7
26684 kPa | 997.9
26720 kPa | 997.9
26756 kPa | 997.9
26800 kPa | 997.9
26835 kPa | 998
26871 kPa | 998
26914 kPa | 998
26950 kPa | 998
26986 kPa | 998
27029 kPa | 998.1
27065 kPa | 998.2
27101 kPa | 998
27145 kPa | 998.2
27182 kPa | 998.1
27219 kPa | 998.2
27256 kPa | 998.2
27301 kPa | 998.2
27339 kPa | 998.2
27376 kPa | 998.2
27421 kPa | 998.2
27458 kPa | 998.2
